Literature values, collected in patent US20070203145A1, “ZOPICLONE RESOLUTION” (priority 2006, published 2007).

Legend:
[1] = compared with racemic zopiclone; per U.S. Pat. No. 6,444,673
[2] = compared with racemic zopiclone; per U.S. Pat. No. 6,444,673; remark: listed apart in the source

Compound: CN1CCN(C(=O)O[C@H]2c3nccnc3C(=O)N2c2ccc(Cl)cn2)CC1 [S-zopiclone, Eszopiclone]
- toxicity relative to the racemic mixture [1]: less toxicity
- activity relative to the racemic mixture [2]: twice the activity of the racemic mixture
